The supplement of paper PMC8960247
Structures can show the parent of a compound that is named as a salt. ± gives the standard error.

Assays:
[1] = tested on: 621-102 (TSC2-deficient); test: relative viability vs DMSO; higher = less cytotoxic; conditions: serum: 10% FBS, 72 h
[2] = tested on: 621-103 (TSC2-rescued); test: as above; conditions: serum: 10% FBS, 72 h
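Note: immortalized renal angiomyolipoma cells stably carrying empty vector or TSC2, dosed in 384-well plates in DMEM, viability normalized to vehicle-treated wells within each plate.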

SMILES	relative viability ([1]; 0.0001 µM) [%]	relative viability ([1]; 0.001 µM) [%]	relative viability ([1]; 0.01 µM) [%]	relative viability ([1]; 0.1 µM) [%]	relative viability ([1]; 1 µM) [%]	relative viability ([1]; 10 µM) [%]	relative viability ([2]; 0.0001 µM) [%]	relative viability ([2]; 0.001 µM) [%]	relative viability ([2]; 0.01 µM) [%]	relative viability ([2]; 0.1 µM) [%]	relative viability ([2]; 1 µM) [%]	relative viability ([2]; 10 µM) [%]
CN1[C@@H]2C[C@@H](OC(=O)[C@H](CO)c3ccccc3)C[C@H]1[C@@H]1O[C@@H]12 [Scopolamine hydrobromide]	127 ± 2.7	119 ± 5.9	120 ± 2.6	112 ± 1.9	115.3 ± 1.1	108 ± 3.8	102 ± 4	99.3 ± 2	96.3 ± 2.5	99.3 ± 1.4	100 ± 2.1	102 ± 1.5
Cc1ncc([N+](=O)[O-])n1CC(C)O (stereo not drawn) [Secnidazole]	108.6 ± 0.66	118.1 ± 0.34	108 ± 3.4	101 ± 3.9	102.2 ± 0.53	111 ± 3	101 ± 2.1	105 ± 3.6	105 ± 4.5	105.2 ± 0.64	100 ± 4.3	93.6 ± 4.8
C#CCN(C)[C@H](C)Cc1ccccc1 [Selegiline HCl]	81.4 ± 7.3	80.4 ± 9.2	91.8 ± 7.5	102 ± 1.1	95.7 ± 3	88.1 ± 1.8	95.9 ± 3.1	92.55 ± 0.61	100 ± 1.2	109 ± 2.5	102 ± 3.7	79.5 ± 0.86
CC(C)[C@H](O)C(=O)N[C@@H](C)C(=O)N[C@@H]1C(=O)N(C)CCc2ccccc21 [Semagacestat]	117 ± 2.5	118 ± 4.2	121.4 ± 0.8	117 ± 2	118 ± 1.6	116 ± 2.2	102 ± 2.3	98.71 ± 0.85	101 ± 1.2	102.5 ± 0.4	102 ± 1.2	103 ± 1.7
N[C@@H](CC(=O)N1CCn2c(nnc2C(F)(F)F)C1)Cc1cc(F)c(F)cc1F [Sitagliptin phosphate]	98.7 ± 0.22	104.4 ± 0.16	103 ± 2.5	94 ± 4.4	96.2 ± 1.3	91.46 ± 0.51	97.02 ± 0.71	97.6 ± 1.3	98.68 ± 0.34	100 ± 2	98.8 ± 2.4	101 ± 0.53
CNC(=O)c1cc(Oc2ccc(NC(=O)Nc3ccc(Cl)c(C(F)(F)F)c3)cc2)ccn1 [Sorafenib Tosylate]	90.38 ± 0.54	99.7 ± 5.4	113 ± 6.4	110.1 ± 0.44	127 ± 1.7	82.2 ± 13	97.89 ± 0.32	102 ± 2	106 ± 1.2	102 ± 1.9	102 ± 1.6	44.5 ± 3.4
CC(C)NCC(O)c1ccc(NS(C)(=O)=O)cc1 (stereo not drawn) [Sotalol HCl]	79.7 ± 5.2	99.6 ± 3.7	108.1 ± 1	115 ± 6.1	114 ± 2.9	107 ± 6.9	92 ± 1.4	115 ± 2	113 ± 1.3	118 ± 5.8	118 ± 1.5	108 ± 1.7
Cc1cn([C@H]2C=C[C@@H](CO)O2)c(=O)[nH]c1=O [Stavudine]	75.4 ± 3.2	76.7 ± 0.81	81.206 ± 0.072	89.1 ± 8.5	83.4 ± 2.3	71.2 ± 1.9	105 ± 1.2	99.6 ± 5.1	110 ± 5.4	109 ± 5.7	93.2 ± 2.2	91.2 ± 1.3
Cc1cc(NS(=O)(=O)c2ccc(N)cc2)no1 [Sulfamethoxazole]	105 ± 5.2	104 ± 3.8	104.66 ± 0.095	97.02 ± 0.95	101.8 ± 0.93	97.2 ± 2	96.09 ± 0.3	102 ± 2.2	101 ± 3.9	101 ± 4.7	99.4 ± 6	101 ± 1.7
Nc1ccc(S(N)(=O)=O)cc1 [Sulfanilamide]	94.3 ± 1.1	108 ± 5.2	97.7 ± 2.6	99 ± 1.8	99.8 ± 2.5	92.9 ± 1.2	102 ± 3.3	102 ± 0.77	104 ± 1.8	106 ± 1.9	101 ± 2.4	96.1 ± 2.9
CCN(CC)CCNC(=O)c1c(C)[nH]c(/C=C2\C(=O)Nc3ccc(F)cc32)c1C [Sunitinib Malate]	98.8 ± 6.5	110 ± 7	107 ± 5.9	110 ± 3.6	125 ± 4.1	71 ± 1.9	102 ± 2.3	106 ± 1.5	105.8 ± 0.65	105 ± 1.8	103.2 ± 0.44	30.5 ± 0.91
Cn1c(=O)c(F)c(Nc2ccc(I)cc2F)c2c(=O)n(C[C@@H](O)CO)cnc21 [TAK-733]	101 ± 5.3	107 ± 2.2	101 ± 4.8	95.22 ± 0.047	67.4 ± 2.4	54.3 ± 0.28	97.8 ± 5.4	84.4 ± 2.9	83.5 ± 6	84.4 ± 7	60.7 ± 6.7	51.7 ± 4.3
Cc1cc(OCCCS(C)(=O)=O)cc(C)c1-c1cccc(COc2ccc3c(c2)OC[C@H]3CC(=O)O)c1 [TAK-875]	61.2 ± 7.8	61.5 ± 4	75.9 ± 5.2	80.9 ± 4.5	84.24 ± 0.76	84.2 ± 5.3	103 ± 3	102 ± 1.9	103.7 ± 0.45	102.5 ± 0.61	103 ± 3.5	95.16 ± 0.36
Nc1nc(N)c2nc(-c3cccc(O)c3)c(-c3cccc(O)c3)nc2n1 [TG100-115]	98.9 ± 7.9	105 ± 4.8	110.59 ± 0.023	112 ± 1.9	111 ± 5.8	95.6 ± 3.2	99.62 ± 0.33	99.8 ± 1.2	106 ± 4.6	99.3 ± 0.84	99.5 ± 1.8	100.3 ± 1
Cc1cc(C(C)Nc2ccccc2)c2nc(N3CCOCC3)cc(=O)n2c1 (stereo not drawn) [TGX-221]	94.1 ± 1.7	106 ± 7.4	114 ± 3.3	112 ± 3.6	114 ± 4	101 ± 1.8	98.3 ± 0.45	98.8 ± 0.21	97.7 ± 2	98.8 ± 1.6	99.4 ± 1.5	102 ± 1.8
Cc1[nH]c(/C=C2\C(=O)Nc3ccccc32)c(C)c1CCC(=O)O [TSU-68]	94 ± 1.4	106 ± 3.3	119 ± 3.6	110 ± 2.1	91.7 ± 3.8	95.8 ± 2.4	101 ± 1.9	103 ± 1.2	101 ± 2.4	102 ± 1.7	102 ± 1.9	95.7 ± 1.1
CN1CC(=O)N2[C@H](c3ccc4c(c3)OCO4)c3[nH]c4ccccc4c3C[C@@H]2C1=O [Tadalafil (Cialis)]	107.45 ± 0.0089	97.8 ± 3.3	107 ± 4.8	101 ± 2	94.3 ± 2.4	107.7 ± 0.44	91.2 ± 1.9	92.87 ± 0.31	102.7 ± 0.92	92.11 ± 0.35	96.51 ± 0.38	101 ± 2
CC/C(=C(\c1ccccc1)c1ccc(OCCN(C)C)cc1)c1ccccc1 [Tamoxifen Citrate]	102.7 ± 0.75	98.8 ± 1.8	111 ± 2.6	98.76 ± 0.6	100.8 ± 1	80.9 ± 5.2	101 ± 3.6	102 ± 3.1	104 ± 5.2	101 ± 2.4	107 ± 3.5	48.1 ± 2.6
CCOc1ccccc1OCCN[C@H](C)Cc1ccc(OC)c(S(N)(=O)=O)c1 [Tamsulosin HCl]	104 ± 3.8	99.7 ± 2.3	99.5 ± 2.2	102 ± 5	97 ± 3.9	98.4 ± 4	107 ± 5.6	104 ± 4.7	105 ± 2	103 ± 2.4	96.4 ± 7	98.4 ± 2.6
